In the series the test system is Yap1 mRNA. Description: Dose-dependent inhibition of human Yap1 in A-431 cells (Example 7, 10,000 cells per well, RTS36584). As to conditions: free uptake. It counts as cell-based. The procedure: Modified oligonucleotides described in the studies above were tested at various doses in A-431 cells. Cultured A-431 cells at a density of 10,000 cells per well were treated using free uptake with modified oligonucleotides diluted to concentrations described in the tables below. After approximately 48 hours, Yap1 mRNA levels were measured as previously described using the Human Yap1 primer-probe set RTS36584. Yap1 mRNA levels were normalized to total RNA content, as measured by RIBOGREEN®. Results are presented in the tables below as percent control of the amount of Yap1 mRNA relative to untreated control cells (% UTC). IC50s were calculated using a linear regression on a log/linear plot of the data in excel.

Setting [1] is: 15.6 nM, A-431 cells, 10,000 cells per well, approximately 48 hours.
Where [2] appears, read: 62.5 nM, A-431 cells, 10,000 cells per well, approximately 48 hours.
Setting [3] is: 4000.00 nM, A-431 cells, 10,000 cells per well, approximately 48 hours.
Setting [4] is: A-431 cells, approximately 48 hours, linear regression on log/linear plot.
Setting [5] is: Table 57, 15.6 nM, A-431 cells 10,000 cells per well, 48 hours.
[6] abbreviates: Table 57, 62.5 nM, A-431 cells 10,000 cells per well, 48 hours.
[7] abbreviates: Table 57, 4000.00 nM, A-431 cells 10,000 cells per well, 48 hours.
[8] abbreviates: Table 57, A-431 cells 10,000 cells per well.

Strand notation (5' to 3'): a small letter for the sugar, then the base; units joined by * are phosphorothioate-linked, units joined directly phosphodiester-linked; [ ] holds rarer units or linkages, { } end groups; capitals alone tell only the bases. k = constrained ethyl (cEt); [5mC] = 5-methylcytosine; d = 2'-deoxy (DNA)

The term IC50 denotes the concentration at which inhibition is half-maximal. Turning to “958490 (kG*kT*kG*dA*d[5mC]*dA*dT*dG*dA*dA*dG*d[5mC]*dA*kT*k[5mC]*kT; antisense) [compound 958490]”, the “Yap1 mRNA, % UTC” value is, setting by setting: under setting [1], 81 % UTC; under setting [2], 54 % UTC; under setting [3], 13 % UTC. Moreover, the IC50 under setting [4] came out at 100 nM.

With “958546 (k[5mC]*kA*kT*dA*d[5mC]*dT*d[5mC]*dT*dA*dG*dT*dT*dA*k[5mC]*kA*kT; antisense) [compound 958546]”, the “Yap1 mRNA, % UTC” value runs as follows: under setting [5], 91 % UTC; under setting [6], 72 % UTC; under setting [7], 22 % UTC. Moreover, half-maximal inhibition under setting [8] (IC50) required 200 nM.

On to “958648 (kG*kA*kA*dT*dA*d[5mC]*dT*dG*dA*dG*dT*d[5mC]*dA*kG*kG*kA; antisense) [compound 958648]”, for which the “Yap1 mRNA, % UTC” value by setting is: (Table 60, 15.6 nM, A-431 cells 10,000 cells per well, 48 hours) 80 % UTC; (Table 60, 62.5 nM, A-431 cells 10,000 cells per well, 48 hours) 65 % UTC; (Table 60, 4000.00 nM, A-431 cells 10,000 cells per well, 48 hours) 24 % UTC. Besides, half-maximal inhibition (Table 60, A-431 cells 10,000 cells per well) (IC50) required 200 nM.

As for “958484 (kG*k[5mC]*kA*dG*d[5mC]*dA*dA*dT*dG*dG*dA*d[5mC]*dA*kA*kG*kG; antisense) [compound 958484]”, the “Yap1 mRNA, % UTC” value by setting is: (Table 61, 15.6 nM, A-431 cells 10,000 cells per well, 48 hours) 77 % UTC; (Table 61, 62.5 nM, A-431 cells 10,000 cells per well, 48 hours) 38 % UTC; (Table 61, 4000.00 nM, A-431 cells 10,000 cells per well, 48 hours) 4 % UTC. In addition, the IC50 (Table 61, A-431 cells 10,000 cells per well) turned out to be 50 nM.

Take “958781 (kG*kT*k[5mC]*dA*dT*d[5mC]*dT*dA*dT*dG*dT*dG*dT*k[5mC]*k[5mC]*kT; antisense) [compound 958781]”: the “Yap1 mRNA, % UTC” value under setting [5] is given as 77 % UTC; the “Yap1 mRNA, % UTC” value under setting [6] came to 45 % UTC; the “Yap1 mRNA, % UTC” value under setting [7] is reported as 10 % UTC. The same substance yielded a concentration for half-maximal inhibition (IC50) under setting [8] of 100 nM.

As to “958551 (k[5mC]*kT*k[5mC]*d[5mC]*dT*dG*dT*dA*dG*dA*d[5mC]*dA*d[5mC]*kA*kT*kA; antisense) [compound 958551]”, the “Yap1 mRNA, % UTC” value by setting is: under setting [5], 95 % UTC; under setting [6], 73 % UTC; under setting [7], 14 % UTC. The IC50 under setting [8] was found to be 200 nM.

Turning to “958726 (k[5mC]*kT*kG*dT*d[5mC]*dA*dG*dT*dT*dA*dT*d[5mC]*d[5mC]*kT*kA*kT; antisense) [compound 958726]”, the “Yap1 mRNA, % UTC” value by setting is: (Table 56, 15.6 nM, A-431 cells 10,000 cells per well, 48 hours) 99 % UTC; (Table 56, 62.5 nM, A-431 cells 10,000 cells per well, 48 hours) 70 % UTC; (Table 56, 4000.00 nM, A-431 cells 10,000 cells per well, 48 hours) 16 % UTC. Further, the midpoint of inhibition (Table 56, A-431 cells 10,000 cells per well), the IC50, lay at 170 nM.

Take “958594 (k[5mC]*kT*k[5mC]*dT*dT*dA*dG*dG*dT*d[5mC]*dT*d[5mC]*d[5mC]*kT*kT*k[5mC]; antisense) [compound 958594]”: the “Yap1 mRNA, % UTC” value is, setting by setting: under setting [1], 91 % UTC; under setting [2], 70 % UTC; under setting [3], 20 % UTC. The half-inhibitory concentration (IC50) under setting [4] is 200 nM.

Take “958526 (kA*kG*kT*dA*dA*dG*dA*dA*d[5mC]*dA*dA*dT*d[5mC]*kT*kT*kG; antisense) [compound 958526]”: the “Yap1 mRNA, % UTC” value reads like this: under setting [5], 118 % UTC; under setting [6], 83 % UTC; under setting [7], 17 % UTC. Under setting [8], this substance had an IC50 of 200 nM.

For the origin of these results see US11214803B2, “Modulators of YAP1 expression” (Ionis Pharmaceuticals, Inc., priority 2019, dated 2022).
